# pIC50: −log10 of the molar value. No end group written: not given here.
# Experiments:
# Experiment in all cases: biochemical
# DRB1*0301 = DRB1*0301 (Homo sapiens, UniProt P01903+P01911, A100K/A102G/A103R/A169T/F55Y/I96L/K41T/L162R/M171V/P40S/Q125H/Q178H/Q39Y/R42S/S66N/T106N/T262R/W38E/Y61H); type: binding
# DRB1*1201 = DRB1*1201 (Homo sapiens, UniProt P01903+P01911, A100R/A169T/D57E/D86V/F55L/H45Y/K41T/L162R/M171V/P40S/Q125H/Q178H/Q39Y/Q99D/R42G/S66L/T262R/V114A/V67L/W38E/Y59H/Y61H/Y89S); type: binding
# DR1 (DRB1*0101) = DR1 (DRB1*0101) (Homo sapiens, UniProt P01903+P01911, A100R/D57E/F55L/F60I/F76Y/I96L/L162R/M171V/P40L/Q125E/R42F/V115G/Y59C); type: binding
# DR7 (DRB1*0701) = DR7 (DRB1*0701) (Homo sapiens, UniProt P01903+P01911, A100R/A102G/A103Q/D57E/D86V/E43K/F76Y/K127E/L162R/M171V/P40G/Q125H/Q99D/R33Q/R42Y/R54Q/S133A/S66F/T210M/V115G/Y107V/Y59L/Y89S); type: binding
# DRB1*0802 = DRB1*0802 (Homo sapiens, UniProt P01903+P01911, A100R/A103L/A169T/F76Y/H45Y/I96F/K41T/L162R/M171V/P40S/Q125H/Q178H/Q39Y/Q99D/R218S/R42G/S66Y/V115G/W38E); type: binding
# DRB1*0901 = DRB1*0901 (Homo sapiens, UniProt P01903+P01911, A100R/A103E/D57H/D86V/F55Y/F60I/F76Y/I96F/K127E/L162R/M171V/P40D/Q125H/Q99R/R33Q/R42F/S133A/S66N/T210M/V115G/W38K/Y107V/Y59G/Y89S); type: binding
# DRB1*1302 = DRB1*1302 (Homo sapiens, UniProt P01903+P01911, A100E/A169T/K41T/L162R/M171V/P40S/Q125H/Q178H/Q39Y/Q99D/R42S/S66N/T262R/V115G/W38E/Y61H); type: binding
# DRB1*1501 = DRB1*1501 (Homo sapiens, UniProt P01903+P01911); type: binding
# DRB1*1101 = DRB1*1101 (Homo sapiens, UniProt P01903+P01911, A100R/A169T/A87E/I96F/K41T/L162R/M171V/P40S/Q125H/Q178H/Q39Y/Q99D/R42S/S66Y/T262R/V115G/W38E); details: Binding affinity DRB1 *1101
# DRB5*0101 = DRB5*0101 (Homo sapiens, UniProt P01903+Q30154); details: Binding affinity DRB5 *0101
# DRB4*0101 = DRB4*0101 (Homo sapiens, UniProt P01903+P13762, G164S); type: binding
# DR4w4 (DRB1*0401) = DR4w4 (DRB1*0401) (Homo sapiens, UniProt P01903+P01911, A100K/A169T/F76Y/I96L/K127E/L162R/M171V/N62H/P40V/Q125Y/R42H/S133A/S149N/S66Y/V115G/V209L/W38E); type: binding
# Chain of DRB1*0301 (P01903 26-254 limits assumed, other chains not shown): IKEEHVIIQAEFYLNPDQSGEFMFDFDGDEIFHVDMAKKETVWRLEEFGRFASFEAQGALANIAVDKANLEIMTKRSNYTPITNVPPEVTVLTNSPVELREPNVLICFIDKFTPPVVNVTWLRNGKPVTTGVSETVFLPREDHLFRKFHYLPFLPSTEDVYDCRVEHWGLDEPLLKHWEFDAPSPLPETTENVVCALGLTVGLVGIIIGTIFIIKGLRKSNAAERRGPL
# Chain of DRB1*1101 (P01903 26-254 limits assumed, other chains not shown): as above
# Chain of DRB1*1302 (P01903 26-254 limits assumed, other chains not shown): as above
molecule,measurement,setting,value
CC(C)C[C@H](NC(=O)[C@@H]1CCCN1C(=O)[C@H](Cc1c[nH]cn1)NC(=O)[C@@H]1CCCN1C(=O)[C@H](Cc1ccccc1)NC(=O)[C@H](CO)NC(=O)[C@H](Cc1c[nH]cn1)NC(=O)[C@H](CO)NC(=O)[C@@H](NC(=O)[C@H](CCC(N)=O)NC(=O)[C@H](Cc1ccccc1)NC(=O)[C@@H](NC(=O)[C@H](CCC(N)=O)NC(=O)CN)C(C)C)C(C)C)C(=O)N[C@@H](Cc1ccc(O)cc1)C(=O)O [Peptide 68.0069],pIC50,DRB1*0301,< 4.70
same,pIC50,DRB1*1201,6.25
TVTFVTEQQQQMFLG [Peptide 90.0210],pIC50,DR1 (DRB1*0101),5.71
same,pIC50,DR7 (DRB1*0701),< 4.70
same,pIC50,DRB1*0301,7.39
same,pIC50,DRB1*0802,5.22
same,pIC50,DRB1*0901,< 4.70
same,pIC50,DRB1*1201,5.56
same,pIC50,DRB1*1302,< 4.70
same,pIC50,DRB1*1501,< 4.70
same,pIC50,DRB1*1101,< 4.70
same,pIC50,DRB5*0101,< 4.70
CSCC[C@H](NC(=O)[C@@H]1CCCN1C(=O)[C@H](CC(=O)O)NC(=O)[C@@H](N)Cc1ccc(O)cc1)C(=O)N[C@@H](Cc1ccccc1)C(=O)N[C@@H](CCCCN)C(=O)N[C@@H](Cc1ccc(O)cc1)C(=O)N[C@@H](Cc1c[nH]cn1)C(=O)N[C@@H](CC(C)C)C(=O)N[C@H](C(=O)N[C@H](C(=O)N[C@@H](C)C(=O)N[C@@H](CCC(N)=O)C(=O)N[C@H](C(=O)N[C@@H](CCCNC(=N)N)C(=O)O)C(C)C)C(C)C)[C@@H](C)O [Peptide 68.0117],pIC50,DRB1*0301,< 4.70
same,pIC50,DRB1*1201,6.62
NCILLYGAANTGKSL [Peptide 89.0017],pIC50,DR1 (DRB1*0101),7.09
same,pIC50,DR7 (DRB1*0701),< 4.70
same,pIC50,DRB1*0301,< 4.70
same,pIC50,DRB1*0802,5.57
same,pIC50,DRB1*1201,< 4.70
same,pIC50,DRB1*1302,5.67
same,pIC50,DRB4*0101,6.28
same,pIC50,DRB1*1101,5.24
same,pIC50,DRB5*0101,6.35
CSCC[C@H](NC(=O)[C@@H]1CCCN1C(=O)[C@@H](N)CC(=O)O)C(=O)N[C@@H](Cc1ccccc1)C(=O)N[C@@H](CCCCN)C(=O)N[C@@H](Cc1ccc(O)cc1)C(=O)N[C@@H](Cc1c[nH]cn1)C(=O)N[C@@H](CC(C)C)C(=O)N[C@H](C(=O)N[C@H](C(=O)N[C@@H](C)C(=O)N[C@@H](CCC(N)=O)C(=O)N[C@H](C(=O)N[C@@H](CCCNC(=N)N)C(=O)NCC(=O)O)C(C)C)C(C)C)[C@@H](C)O [Peptide 68.0118],pIC50,DRB1*0301,< 4.70
same,pIC50,DRB1*1201,6.33
CC[C@H](C)[C@H](NC(=O)[C@H](CCCNC(=N)N)NC(=O)[C@@H](N)[C@@H](C)O)C(=O)N[C@@H](Cc1ccc(O)cc1)C(=O)N[C@@H](CC(N)=O)C(=O)N[C@H](C(=O)N[C@H](C(=O)NCC(=O)N[C@H](C(=O)N[C@@H](CC(C)C)C(=O)N[C@@H](CCCNC(=N)N)C(=O)NCC(=O)N[C@@H](C)C(=O)N[C@H](C(=O)N[C@@H](CCC(=O)O)C(=O)O)C(C)C)[C@@H](C)O)[C@@H](C)CC)C(C)C [Peptide 68.0107],pIC50,DRB1*0301,< 4.70
same,pIC50,DRB1*1201,6.30
CC[C@H](C)[C@H](NC(=O)[C@H](CC(C)C)NC(=O)[C@H](CCCCN)NC(=O)[C@H](CCCCN)NC(=O)[C@@H](N)Cc1ccc(O)cc1)C(=O)N[C@@H](CCSC)C(=O)N[C@@H](Cc1ccc(O)cc1)C(=O)N[C@@H](CO)C(=O)N[C@@H](C)C(=O)N[C@@H](Cc1c[nH]cn1)C(=O)N[C@@H](CC(=O)O)C(=O)N[C@H](C(=O)N[C@H](C(=O)N[C@H](C(=O)N[C@@H](CO)C(=O)O)C(C)C)[C@@H](C)O)[C@@H](C)O [Peptide 68.0049],pIC50,DRB1*0301,< 4.70
same,pIC50,DRB1*1201,6.03
CC[C@H](C)[C@H](NC(=O)[C@H](Cc1c[nH]c2ccccc12)NC(=O)[C@H](CCCCN)NC(=O)[C@H](CCCNC(=N)N)NC(=O)[C@H](Cc1ccc(O)cc1)NC(=O)[C@H](Cc1c[nH]cn1)NC(=O)[C@@H](NC(=O)[C@@H](NC(=O)[C@H](CCCCN)NC(=O)[C@@H](NC(=O)[C@H](Cc1ccc(O)cc1)NC(=O)[C@H](CC(C)C)NC(=O)[C@H](CO)NC(=O)[C@@H]1CCCN1C(=O)[C@@H](N)CCCNC(=N)N)[C@@H](C)O)C(C)C)C(C)C)C(=O)O [Peptide 68.0082],pIC50,DRB1*0301,< 4.70
same,pIC50,DRB1*1201,5.38
CC(C)C[C@H](NC(=O)[C@H](CO)NC(=O)[C@H](CC(C)C)NC(=O)[C@H](CO)NC(=O)[C@H](C)NC(=O)[C@H](C)NC(=O)[C@H](CCCNC(=N)N)NC(=O)[C@H](C)NC(=O)[C@H](CC(C)C)NC(=O)[C@H](CC(C)C)NC(=O)[C@H](CC(C)C)NC(=O)[C@@H]1CCCN1C(=O)[C@H](C)NC(=O)[C@H](C)N)C(=O)NCC(=O)O [Peptide 68.0019],pIC50,DRB1*0301,< 4.70
same,pIC50,DRB1*1201,6.25
CSCC[C@H](NC(=O)[C@H](Cc1ccc(O)cc1)NC(=O)[C@H](Cc1ccc(O)cc1)NC(=O)[C@@H](NC(=O)[C@@H](N)CO)C(C)C)C(=O)N[C@H](C(=O)N[C@@H](CC(=O)O)C(=O)N[C@@H](C)C(=O)NCC(=O)N[C@H](C(=O)N[C@@H](Cc1c[nH]c2ccccc12)C(=O)N[C@@H](CC(=O)O)C(=O)N[C@@H](CCCCN)C(=O)N[C@H](C(=O)N[C@@H](C)C(=O)O)[C@@H](C)O)[C@@H](C)O)[C@@H](C)O [Peptide 90.0182],pIC50,DR1 (DRB1*0101),8.03
same,pIC50,DRB1*0301,6.48
same,pIC50,DRB1*0802,5.07
same,pIC50,DRB1*0901,5.80
same,pIC50,DRB1*1201,6.15
same,pIC50,DRB1*1302,7.85
same,pIC50,DRB1*1501,7.37
same,pIC50,DRB4*0101,8.15
same,pIC50,DRB1*1101,5.54
same,pIC50,DRB5*0101,< 4.70
CC[C@H](C)[C@H](NC(=O)[C@H](CS)NC(=O)[C@H](Cc1c[nH]cn1)NC(=O)[C@H](C)N)C(=O)N[C@@H](CCCNC(=N)N)C(=O)N[C@@H](CC(N)=O)C(=O)N[C@@H](CCCCN)C(=O)N[C@@H](CO)C(=O)N[C@H](C(=O)N[C@H](C(=O)N[C@@H](CC(C)C)C(=O)N[C@@H](CC(C)C)C(=O)NCC(=O)N[C@@H](CCCNC(=N)N)C(=O)N[C@@H](Cc1c[nH]cn1)C(=O)O)[C@@H](C)CC)C(C)C [Peptide 68.0066],pIC50,DRB1*0301,< 4.70
same,pIC50,DRB1*1201,6.80
CC(C)C[C@H](NC(=O)[C@H](CO)NC(=O)[C@H](CC(C)C)NC(=O)[C@H](CO)NC(=O)[C@H](C)NC(=O)[C@H](C)NC(=O)[C@H](CCCNC(=N)N)NC(=O)[C@H](C)NC(=O)[C@H](CC(C)C)NC(=O)[C@H](CC(C)C)NC(=O)[C@H](CC(C)C)NC(=O)[C@@H]1CCCN1C(=O)[C@H](C)N)C(=O)NCC(=O)N[C@@H](Cc1ccccc1)C(=O)O [Peptide 68.0020],pIC50,DRB1*0301,< 4.70
same,pIC50,DRB1*1201,6.65
CC[C@H](C)[C@H](NC(=O)[C@H](CO)NC(=O)[C@@H](NC(=O)CN)C(C)C)C(=O)N[C@@H](Cc1c[nH]c2ccccc12)C(=O)N[C@@H](CC(N)=O)C(=O)N1CCC[C@H]1C(=O)N[C@H](C(=O)N[C@@H](CC(C)C)C(=O)N[C@@H](CC(C)C)C(=O)N[C@@H](Cc1c[nH]c2ccccc12)C(=O)N[C@@H](CCC(N)=O)C(=O)N1CCC[C@H]1C(=O)N[C@H](C(=O)N1CCC[C@H]1C(=O)O)[C@@H](C)CC)[C@@H](C)CC [Peptide 68.0034],pIC50,DRB1*0301,< 4.70
same,pIC50,DRB1*1201,5.41
WKLIRMECALLYTAK [Peptide 90.0199],pIC50,DR7 (DRB1*0701),5.50
same,pIC50,DRB1*0301,6.85
same,pIC50,DRB1*0802,5.57
same,pIC50,DRB1*0901,5.40
same,pIC50,DRB1*1201,6.80
same,pIC50,DRB1*1302,7.01
same,pIC50,DRB1*1501,6.29
same,pIC50,DRB4*0101,7.21
same,pIC50,DRB1*1101,5.70
same,pIC50,DRB5*0101,5.44
CC[C@H](C)[C@H](NC(=O)CNC(=O)[C@@H](NC(=O)[C@H](CCCCN)NC(=O)[C@H](Cc1ccc(O)cc1)NC(=O)[C@H](Cc1c[nH]c2ccccc12)NC(=O)[C@H](Cc1ccc(O)cc1)NC(=O)[C@@H](N)CC(C)C)[C@@H](C)O)C(=O)N[C@@H](CO)C(=O)N[C@@H](CC(N)=O)C(=O)N[C@H](C(=O)N[C@@H](CO)C(=O)N[C@@H](CCC(=O)O)C(=O)N[C@H](C(=O)N[C@@H](Cc1ccc(O)cc1)C(=O)O)C(C)C)[C@@H](C)CC [Peptide 89.0009],pIC50,DR1 (DRB1*0101),7.39
same,pIC50,DR4w4 (DRB1*0401),7.70
same,pIC50,DR7 (DRB1*0701),7.72
same,pIC50,DRB1*0301,< 4.70
same,pIC50,DRB1*0802,5.84
same,pIC50,DRB1*0901,6.20
same,pIC50,DRB1*1201,5.34
same,pIC50,DRB1*1302,6.50
same,pIC50,DRB1*1101,5.20
same,pIC50,DRB5*0101,6.20

# From patent publication US9340577B2, “HLA binding motifs and peptides and their uses” (priority 1992, dated 2016)
